In patent EP0663826B1, “AMINO ACIDS CONTAINING PARENTERAL FORMULATIONS FOR THE TREATMENT OF HYPOTENSION AND RELATED PATHOLOGIES” (BOARD OF REGENTS THE UNIVERSITY OF TEXAS SYSTEM, priority 1991, dated 1993):

Assays:
[1] = system: hypotension associated with the administration of TNF in the dog; test: TNF-induced hypotension in the dog; format: in vivo, dogs
Procedure: Recombinant human TNF, specific activity 2 x 10^7 units/mg, was from the Dainippon Chemical Corporation, Tokyo, Japan. TNF was administered at a dose of 10 µg//kg in a volume of 10 ml of phosphate buffered saline containing 17 mg/ml of dog albumin. […] Arginine was obtained from Sigma Chemical Company, St. Louis, Mo.
Four conditioned mongrel dogs, 2 males and 2 females, weighing 28 to 30 kg, were studied. Care of the animals were in accordance with the recommendations of the American Association for Accreditation of Laboratory Animals [DHEW(DHHS) publication no. (NIH) 78-23, revised, 1978]. On the day of the experiment, the dogs were fasted overnight. They were anesthetized with phenobarbital (25 mg/kg). The animals were then intubated orally with a #10 fr. endotracheal tube and ventilated with a Harvard pump ventilator at a rate of 14 breaths per minute and a tidal volume of 15 ml/kg. An arterial line was percutaneously placed in the femoral artery on the day of the experiment.
Mean (electronic) and phasic systemic arterial pressures (SAP) were continuously recorded on a Hewlett-Packard recording system (model 7758B) using strain gauge manometers (Hewlett-Packard model 1290A) which were connected to the arterial line. Heart rate (HR) was determined from an EKG tracing and continuously recorded on the Hewlett-Packard recording system. Oxyhemoglobin saturation (SaO2) was obtained using a pulse oximeter (BIOX 111, Boulder, CO). Continuous time-series records of SAP, HR, and SaO2 were obtained using a Lab Master analog-to-digital convertor (16 channel, 12 bit, 30 kHz; Scientific Solutions, Inc.) sampling at 55 Hz and storing the 6 sec averages on a magnetic disk.

[2] = system: endotoxin-induced shock in dogs; test: Endotoxin-induced hypotension in dogs (with nitroglycerin and control dogs); format: in vivo
Procedure: Animals: Studies were carried out on 12 conditioned mongrel dogs (9 males and 3 females) weighing 22-32 kg (avg=25.3 kg). Animal care was in accordance with the recommendations of the American Association for Accreditation of Laboratory Animal Care, and met all standards prescribed by the Guide for the Care and Use of Laboratory Animals (Guide for the Care and Use of Laboratory Animals (1978) Dept. of Health, Education and Welfare, Washington, D.C. (Publ. No. 78-23). Animal protocols were approved by The University of Texas Animal Welfare committee. The dogs were fasted overnight prior to the day of experimentation. They were anesthetized with sodium pentobarbital (25 mg/kg i.v.). Dogs were then endotracheally intubated and ventilated with a piston-driven respirator (Harvard instruments) using room air at a tidal volume of 15 ml/kg and at a rate of 12 to 14 breaths per minute, adjusted to achieve a normal arterial pH and pCO2 (Instrumentation Laboratories lL1302 pH/Blood Gas Analyzer). Catheters were placed percutaneously into the femoral and pulmonary arteries; In the latter, a flow-directed thermal-dilation catheter was used (Abbott Critical Care Systems).
Physiologic measurements: Mean SAP and heart rate were continuously monitored (Parametron 7048 Monitoring System, Roche) and stored on a magnetic disk using an analog-to-digital converter (Scientific Solutions, Inc.). Cardiac output (CO) was determined as the mean of six measurements by thermal-dilution. Systemic vascular resistance was calculated as (SAP X80)/CO and expressed as dynes-sec/cm^5 (kg/s·cm^4).
Protocol: After the blood pressure and heart rate stabilized, endotoxin (40 µg/kg, in 10 ml of phosphate-buffered saline (PBS), pH 7.4) was infused i.v. over 2 minutes. This dose of endotoxin typically induces severe and often lethal cardiovascular collapse in the dog. Blood pressure was monitored, and when either SAP fell below 60 mm Hg or a stable nadir in systemic arterial pressure (SAP) was maintained for 10 minutes, L-NMA was administered (20 mg/kg in 5 ml of PBS i.v. over 1 min.). In most experiments, L-arginine (400 mg/kg in 20 ml PBS) was administered ten minutes later by i.v. infusion over 2 minutes. In control experiments, dogs without prior exposure to endotoxin received L-NMA alone. To simulate the hypotension observed in dogs receiving endotoxin, one group of dogs received a continuous i.v. infusion of nitroglycerin (2 mg/ml) at a rate adjusted to maintain the SAP at 60-70 mm Hg. Nitroglycerin-treated dogs then received L-NMA (20 mg/kg) and 20 minutes later L-arginine was administered ([…]).
Statistics: Statistical significance was evaluated using Student's test and either a one-tailed or two-tailed analysis as appropriate for comparisons.

[3] = system: Actinomycin D-Treated L929 Cells; test: Cytolytic activity of rh-TNF against L929 cells; format: cell-based, murine; settings: for TNF Activity: without NMMA 594.5
Procedure: TNF bioactivity was measured by the cytotoxicity towards murine L929 cells, in vitro. […]

[4] = system: ^51Cr-labeled Raji Target cells; test: IL-2 mediated lymphokine activated killer cell activity in vitro; format: cell-based, human

In the case of `CNC(=N)NCCC[C@H](N)C(=O)O` [NMMA, N^ω-methyl-L-arginine], the “duration of NMMA-induced bradycardia” value ([1]; NMMA alone to untreated dogs (n=3)) is reported as 31 min, the blood pressure increase ([1]; NMMA alone to untreated dogs (n=3), within 2 minutes after infusion) is reported as 12 mm Hg and the blood pressure increase ([1]; NMMA in dogs infused with nitroglycerin 28 µg/kg/minute IV) is reported as 14 mm. The “increase in blood pressure after administration of NMMA” value ([1]; dog with severe TNF hypotension, 4.4 mg NMMA/kg, Figure 4a) was 80 mm Hg, the “time to pressor effect of NMMA” value ([1]; dogs made hypotensive with TNF) was at most 2 min and the “time SAP maintained greater than 100 mm Hg by second dose of L-NMA” value ([2]; Figure 6 dog, endotoxin) was 2 h. The “time blood pressure was maintained by the first dose of L-NMA” value ([2]; Figure 6 dog, endotoxin) was 48 min, the “increase in SAP” value ([2]; Figure 6 dog, endotoxin hypotension 47 mm Hg, L-NMA 20 mg/kg, within 10 min) was 73 mm Hg and the “Cardiac Output” value ([2]; Study 1: Endotoxin-treated dogs (n=4), means ± S.E., same sequence, baseline 2.99 ± 0.32) was 2.03 ± 0.32 L/min. The “Heart Rate” value ([2]; Study 1: Endotoxin-treated dogs (n=4), means ± S.E., same sequence, baseline 119.5 ± 6.0) was 123.3 ± 4.8 beats/min, the “Systemic Vascular Resistance” value ([2]; Study 1: Endotoxin-treated dogs (n=4), means ± S.E., same sequence, baseline 3565 ± 454) was 4462 ± 552 dynes-sec/cm^5 and the “Systemic Arterial Pressure” value ([2]; Study 1: Endotoxin-treated dogs (n=4), means ± S.E., sequence endotoxin 40 µg/kg, L-NMA 20 mg/kg, 10 min later L-arginine 400 mg/kg (measured 2 min later), baseline 128.3 ± 9.4) was 107.3 ± 9.6 mmHg. For the same compound, the “Systemic Vascular Resistance” value ([2]; Study 1: Endotoxin-treated dogs (n=4), means ± S.E., value in brackets) was 4.462 ± 0.552 Kg/s·cm^4, the “Cardiac Output” value ([2]; Study 2: Nitroglycerin-treated dogs (n=3), means ± S.E., baseline 3.14 ± 0.21) was 3.85 ± 0.80 L/min and the “Heart Rate” value ([2]; Study 2: Nitroglycerin-treated dogs (n=3), means ± S.E., baseline 143.7 ± 12.1) was 191.7 ± 35.0 beats/min. The “Systemic Vascular Resistance” value ([2]; Study 2: Nitroglycerin-treated dogs (n=3), means ± S.E., baseline 3294 ± 74) was 1858 ± 399 dynes-sec/cm^5, the “Systemic Arterial Pressure” value ([2]; Study 2: Nitroglycerin-treated dogs (n=3), means ± S.E., continuous nitroglycerin (2 mg/ml) titrated to SAP 65 mm Hg, then L-NMA 20 mg/kg, then L-arginine, baseline 129.3 ± 10.2) was 81.8 ± 3.5 mmHg and the “Systemic Vascular Resistance” value ([2]; Study 2: Nitroglycerin-treated dogs (n=3), value in brackets) was 1.858 ± 0.399 Kg/s·cm^4. For the same compound, the “increase in SAP” value ([2]; control dogs not treated with endotoxin, L-NMA alone) was 24.8 ± 2.7 mm Hg, the “Systemic Arterial Pressure” value ([2]; control dogs without endotoxin (n=4), means±S.E., L-NMA, baseline 129.0±10.9) was 153.8±11.4 mm Hg and the “Cardiac Output” value ([2]; control dogs without endotoxin (n=4), means±S.E., baseline 3.54±0.68) was 2.12 ± 0.26 L/min. The “Heart Rate” value ([2]; control dogs without endotoxin (n=4), means±S.E., baseline 121±17.9) was 82.5±6.1 beats/min, the “Systemic Vascular Resistance” value ([2]; control dogs without endotoxin (n=4), means±S.E., baseline 3115±347) was 5967±523 dynes-sec/cm^5 and the “Systemic Vascular Resistance” value ([2]; control dogs without endotoxin (n=4), value in brackets) was 5.967±0.523 Kg/cm^4·s. The “change in blood pressure” value ([2]; dogs with blood pressure reduced to 65 mm Hg by continuous i.v. nitroglycerin, L-NMA 20mg/kg) was 17.1±5.0 mm Hg, the “duration normal blood pressure maintained” value ([2]; endotoxin-treated dog, additional dose of L-NMA (20 mg/kg) when blood pressure began to decrease) was “at least 2 hours” and the “duration normal blood pressure restored” value ([2]; endotoxin-treated dog, single i.v. dose of L-NMA (20 mg/kg)) was 30 to 60 min. The “HR and CO” value ([2]; endotoxin-treated dogs, L-NMA 20 mg/kg) was “unchanged”, the “time to reversal of hypotension by L-NMA” value ([2]; endotoxin-treated dogs, L-NMA 20 mg/kg iv) was at most 1.5 min and the “increase in SAP” value ([2]; endotoxin-treated dogs, L-NMA 20 mg/kg, p<0.01) was 47.8 ± 6.8 mm Hg. For the same compound, the “decrease in cardiac output (Δ)” value ([2]; two of the four control dogs, L-NMA) was at least 1.5 L/min, the “TNF Activity” value ([3]; [NMMA] 0.125 mM) was 536.9 Units/ml and the “TNF Activity” value ([3]; [NMMA] 0.250 mM) was 538.2 Units/ml. For the same compound, the “TNF Activity” value ([3]; [NMMA] 0.500 mM) was 562.4 Units/ml, the “TNF Activity” value ([3]; [NMMA] 1.0 mM) was 415.7 Units/ml and the “effect on the cytolytic effect of TNF towards tumor cells in vitro” value ([3]; murine L929 cells) was “did not alter”. For the same compound, the “% Target Cell Lysis” value ([4]; [NMMA] 2.0 mM, same effector cells, without NMMA 66.1 ± 9.5) was 75.1 ± 4.1% and the “effect on the proliferation phase or the lytic phase of human LAK cells exposed to IL-2” value ([4]; in vitro) was “did not alter”.
